In patent US4792609A, “Indoline and 1,2,3,4-tetrahydroquinoline N(dicarboalkoxyvinyl) substituted derivatives” (Bayer Aktiengesellschaft, priority 1985, dated 1988):

Assays:
[1] = UV absorption (λmax, molar and specific extinction, intrinsic coloration); type: physicochemical; conditions: for E (molar extinction coefficient): Table 1, at λmax; for specific extinction: text on Table 2, compared with compounds of formula I, in words
[2] = solubility at RT in cosmetic oils; type: physicochemical; conditions: for solubility at RT, groundnut/paraffin oil = 1:9: groundnut/paraffin oil = 1:9, printed as symbol

| SMILES | λmax ([1]; Table 1) [nm] | E (molar extinction coefficient) [1] [L/mol/cm] | specific extinction E^1 ([1]; Table 2) | λmax ([1]; Table 2) [nm] | solubility at RT, groundnut oil ([2]; printed as symbol) | solubility at RT, groundnut/paraffin oil = 1:9 [2] | specific extinction [1] | solubility at RT, groundnut oil [2] [%] |
| --- | --- | --- | --- | --- | --- | --- | --- | --- |
| CCOC(=O)C(=CN1CCc2ccccc21)C(=O)OCC [(1), N-(dicarboethoxyvinyl)indoline] | 330 | 32200 | 1114 | 330 | .infin. | .infin. |  |  |
| CCOC(=O)C(C(=O)OCC)=C(C)N1CCc2ccccc21 [(3), N-(α-methyl-β,β-dicarboethoxyvinyl)indoline] | 338 |  |  | 338 | .infin. | .infin. |  |  |
| CC(C)COC(=O)C(=CN1c2ccccc2CC1C)C(=O)OCC(C)C (stereo not drawn) [(4), N-(dicarbo-iso-butoxyvinyl)-2-methylindoline] | 331 | 26200 | 730 | 331 | .infin. | .infin. |  |  |
| CCCCCCOC(=O)C(=CN1c2ccccc2CC1C)C(=O)OCCCCCC (stereo not drawn) [(5), N-(dicarbohexyloxyvinyl)-2-methylindoline] | 332 | 25300 | 582 | 332 | .infin. | .infin. |  |  |
| CCOC(=O)C(=CN1CCCc2ccccc21)C(=O)OCC [(6), N-(dicarboethoxyvinyl)-1,2,3,4-tetrahydroquinoline] | 317 | 26700 | 878 | 317 | .infin. | .infin. |  |  |
| COc1ccc(C(=O)c2cc(S(=O)(=O)O)c(OC)cc2O)c(O)c1 [Comparison example 1, sodium 2,2'-dihydroxy-4,4'-dimethoxybenzophenone-5-sulphonate, reference compound] |  |  | 160 | 330 |  |  | markedly lower specific extinction |  |
| O=C(c1ccc(O)cc1O)c1ccc(O)cc1O [Comparison example 2, 2,2',4,4'-tetrahydroxybenzophenone, reference compound] |  |  | 645 | 351 |  |  | markedly lower specific extinction | 0.8 |
| COc1ccc(C(=O)CC(=O)c2ccc(OC)cc2)cc1 [Comparison example 3, dianisoylmethane, reference compound] |  |  |  |  |  |  |  | 1 |
| CCOC(=O)C(=CN1c2ccccc2CC1C)C(=O)OCC (stereo not drawn) [Compound (2), N-(dicarboethoxyvinyl)-2-methylindoline] | 330 | 30000 | 1008 | 330 | .infin. | .infin. |  |  |
